From paper PMC4685510, “A Cell Biologist’s Field Guide to Aurora Kinase Inhibitors” (Frontiers in Oncology, 2015) come the findings set out here.

Molecules are shown by their SMILES.

Assay in all cases: biochemical
What all share (assay type): biochemical

In assay [1] the target is 363 human kinases (including Aurora A/B/C) (Homo sapiens, UniProt P04629). As to conditions: TRKA; for remaining activity at 0.1 µM: 100 nM.
From the text: (§1) However, the Aurora A/B selectivity ratios derived from our in vitro and in vivo data can be compared to prioritize inhibitors.
The target in assay [2] is 363 human kinases (including Aurora A/B/C) (Homo sapiens, UniProt P07332). Conditions: FES/FPS, [ATP] 50 µM; for remaining activity at 0.5 µM / remaining activity at 0.1 µM: read-out: % Enzyme Activity (relative to DMSO controls); for remaining activity at 0.1 µM: 100 nM.
Sequence of 363 human kinases (including Aurora A/B/C) (Homo sapiens, UniProt P07332) (P07332 whole entry): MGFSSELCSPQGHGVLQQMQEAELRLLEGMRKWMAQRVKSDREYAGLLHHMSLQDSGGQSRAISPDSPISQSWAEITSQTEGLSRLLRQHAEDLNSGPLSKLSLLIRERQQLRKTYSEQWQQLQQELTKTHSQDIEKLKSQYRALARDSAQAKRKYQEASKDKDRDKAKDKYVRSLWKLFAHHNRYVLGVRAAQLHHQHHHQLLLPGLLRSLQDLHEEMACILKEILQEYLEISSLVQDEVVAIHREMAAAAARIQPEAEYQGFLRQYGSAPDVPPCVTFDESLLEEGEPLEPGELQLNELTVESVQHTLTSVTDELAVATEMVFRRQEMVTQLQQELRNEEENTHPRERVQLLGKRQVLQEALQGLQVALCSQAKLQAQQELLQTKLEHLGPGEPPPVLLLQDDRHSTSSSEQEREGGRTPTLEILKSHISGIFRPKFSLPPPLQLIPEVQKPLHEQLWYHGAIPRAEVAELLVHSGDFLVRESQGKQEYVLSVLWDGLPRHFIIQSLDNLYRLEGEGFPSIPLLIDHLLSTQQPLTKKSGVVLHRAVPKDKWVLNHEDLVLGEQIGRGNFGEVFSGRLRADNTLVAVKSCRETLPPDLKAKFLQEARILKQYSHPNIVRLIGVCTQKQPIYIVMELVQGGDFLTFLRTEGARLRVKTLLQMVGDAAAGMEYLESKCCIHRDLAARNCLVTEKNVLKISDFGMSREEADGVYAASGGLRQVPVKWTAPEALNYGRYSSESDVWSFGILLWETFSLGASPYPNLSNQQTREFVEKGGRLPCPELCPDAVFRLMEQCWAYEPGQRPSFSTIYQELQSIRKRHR
From the text: as §1
Assay [3] has as its target 363 human kinases (including Aurora A/B/C) (Homo sapiens, UniProt P29597). Conditions: TYK2; for remaining activity at 0.5 µM / remaining activity at 0.1 µM: read-out: % Enzyme Activity (relative to DMSO controls); for remaining activity at 0.1 µM: 100 nM.
From the text: as §1
Assay [4] addresses T1, 363 human kinases (including Aurora A/B/C) (Homo sapiens, UniProt P30530).
T1 sequence (P30530 26-894): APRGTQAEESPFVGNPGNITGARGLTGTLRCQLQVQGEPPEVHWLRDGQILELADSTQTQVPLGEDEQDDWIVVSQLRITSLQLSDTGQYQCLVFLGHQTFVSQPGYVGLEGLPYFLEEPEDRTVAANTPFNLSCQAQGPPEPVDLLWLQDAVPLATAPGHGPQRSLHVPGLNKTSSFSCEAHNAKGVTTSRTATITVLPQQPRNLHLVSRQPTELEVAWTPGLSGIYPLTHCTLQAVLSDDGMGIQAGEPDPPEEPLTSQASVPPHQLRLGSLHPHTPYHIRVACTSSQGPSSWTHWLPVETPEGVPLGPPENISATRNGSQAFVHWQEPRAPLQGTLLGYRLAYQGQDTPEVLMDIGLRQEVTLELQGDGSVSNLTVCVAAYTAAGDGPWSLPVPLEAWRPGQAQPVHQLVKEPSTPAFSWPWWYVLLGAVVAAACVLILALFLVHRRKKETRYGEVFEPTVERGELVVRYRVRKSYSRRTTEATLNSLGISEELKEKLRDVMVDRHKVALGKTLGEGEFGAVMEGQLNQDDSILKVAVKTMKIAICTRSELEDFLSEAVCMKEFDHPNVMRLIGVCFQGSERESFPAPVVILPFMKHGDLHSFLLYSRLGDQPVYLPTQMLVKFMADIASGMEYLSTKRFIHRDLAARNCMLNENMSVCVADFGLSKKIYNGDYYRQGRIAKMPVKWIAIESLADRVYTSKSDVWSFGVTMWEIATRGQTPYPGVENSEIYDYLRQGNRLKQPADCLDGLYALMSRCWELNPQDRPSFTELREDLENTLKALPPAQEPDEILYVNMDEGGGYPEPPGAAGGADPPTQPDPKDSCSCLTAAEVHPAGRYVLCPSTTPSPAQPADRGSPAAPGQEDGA
As to conditions: AXL, [ATP] 100 µM; for remaining activity at 0.5 µM / remaining activity at 0.1 µM: read-out: % Enzyme Activity (relative to DMSO controls); for remaining activity at 0.1 µM: 100 nM.
From the text: as §1

Assay [5] has as its target 363 human kinases (including Aurora A/B/C) (Homo sapiens, UniProt P41279). As to conditions: COT1/MAP3K8, [ATP] 50 µM; for remaining activity at 0.5 µM / remaining activity at 0.1 µM: read-out: % Enzyme Activity (relative to DMSO controls); for remaining activity at 0.1 µM: 100 nM.
From the text: as §1
In assay [6] the target is T2, 363 human kinases (including Aurora A/B/C) (Homo sapiens, UniProt P45985).
T2 sequence (P45985 1-399): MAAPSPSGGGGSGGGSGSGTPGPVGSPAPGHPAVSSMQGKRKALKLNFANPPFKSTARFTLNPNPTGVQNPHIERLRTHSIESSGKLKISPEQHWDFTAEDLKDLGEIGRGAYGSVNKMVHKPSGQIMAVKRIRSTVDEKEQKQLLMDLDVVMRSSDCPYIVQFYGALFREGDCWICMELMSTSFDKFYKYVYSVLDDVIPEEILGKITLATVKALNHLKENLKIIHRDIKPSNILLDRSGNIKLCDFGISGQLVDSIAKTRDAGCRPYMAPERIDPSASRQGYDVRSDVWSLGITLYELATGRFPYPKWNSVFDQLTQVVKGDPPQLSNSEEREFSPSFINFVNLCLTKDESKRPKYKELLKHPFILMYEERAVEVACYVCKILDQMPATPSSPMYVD
Conditions: MKK4; for remaining activity at 0.5 µM / remaining activity at 0.1 µM: read-out: % Enzyme Activity (relative to DMSO controls); for remaining activity at 0.1 µM: 100 nM.
From the text: as §1

Assay [7] addresses 363 human kinases (including Aurora A/B/C) (Homo sapiens, UniProt P49760). As to conditions: CLK2, [ATP] 50 µM; for remaining activity at 0.5 µM / remaining activity at 0.1 µM: read-out: % Enzyme Activity (relative to DMSO controls); for remaining activity at 0.1 µM: 100 nM.
From the text: as §1
Assay [8] deals with 363 human kinases (including Aurora A/B/C) (Homo sapiens, UniProt Q16512). Conditions: PKN1/PRK1; for remaining activity at 0.5 µM / remaining activity at 0.1 µM: read-out: % Enzyme Activity (relative to DMSO controls); for remaining activity at 0.1 µM: 100 nM.
From the text: as §1
The target in assay [9] is 363 human kinases (including Aurora A/B/C) (Homo sapiens, UniProt Q6DT37). As to conditions: DMPK2, [ATP] 2.5 µM; for remaining activity at 0.5 µM / remaining activity at 0.1 µM: read-out: % Enzyme Activity (relative to DMSO controls); for remaining activity at 0.1 µM: 100 nM.
From the text: as §1
Assay [10] concerns the target 363 human kinases (including Aurora A/B/C) (Homo sapiens, UniProt Q6P2M8). As to conditions: CAMK1b, [ATP] 5 µM; for remaining activity at 0.5 µM / remaining activity at 0.1 µM: read-out: % Enzyme Activity (relative to DMSO controls); for remaining activity at 0.1 µM: 100 nM.
From the text: as §1
Assay [11] addresses 363 human kinases (including Aurora A/B/C) (Homo sapiens, UniProt Q9BXA6). As to conditions: SSTK/TSSK6; for remaining activity at 0.5 µM / remaining activity at 0.1 µM: read-out: % Enzyme Activity (relative to DMSO controls); for remaining activity at 0.1 µM: 100 nM.
From the text: as §1
Assay [12] deals with 363 human kinases (including Aurora A/B/C) (Homo sapiens, UniProt Q9UBS0). As to conditions: p70S6Kb/RPS6KB2; for remaining activity at 0.5 µM / remaining activity at 0.1 µM: read-out: % Enzyme Activity (relative to DMSO controls); for remaining activity at 0.1 µM: 100 nM.
Sequence of 363 human kinases (including Aurora A/B/C) (Homo sapiens, UniProt Q9UBS0) (Q9UBS0 whole entry): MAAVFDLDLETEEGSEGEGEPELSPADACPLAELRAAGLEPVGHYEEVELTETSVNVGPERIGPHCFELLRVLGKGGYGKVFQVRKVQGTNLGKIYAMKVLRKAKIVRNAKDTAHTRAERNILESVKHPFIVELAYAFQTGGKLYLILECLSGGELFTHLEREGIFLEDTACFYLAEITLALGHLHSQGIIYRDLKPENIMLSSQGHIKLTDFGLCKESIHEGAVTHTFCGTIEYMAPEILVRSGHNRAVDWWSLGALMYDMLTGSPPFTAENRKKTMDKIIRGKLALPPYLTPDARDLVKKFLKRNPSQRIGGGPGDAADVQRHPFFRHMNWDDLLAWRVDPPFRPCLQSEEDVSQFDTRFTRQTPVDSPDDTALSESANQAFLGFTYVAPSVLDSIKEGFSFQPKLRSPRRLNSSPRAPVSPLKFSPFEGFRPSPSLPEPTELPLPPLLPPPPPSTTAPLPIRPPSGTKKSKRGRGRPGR
From the text: as §1
In assay [13] the target is 363 human kinases (including Aurora A/B/C) (Homo sapiens, UniProt Q9Y6E0). Conditions: MST3/STK24; for remaining activity at 0.5 µM / remaining activity at 0.1 µM: read-out: % Enzyme Activity (relative to DMSO controls); for remaining activity at 0.1 µM: 100 nM.
Sequence of 363 human kinases (including Aurora A/B/C) (Homo sapiens, UniProt Q9Y6E0) (Q9Y6E0 whole entry): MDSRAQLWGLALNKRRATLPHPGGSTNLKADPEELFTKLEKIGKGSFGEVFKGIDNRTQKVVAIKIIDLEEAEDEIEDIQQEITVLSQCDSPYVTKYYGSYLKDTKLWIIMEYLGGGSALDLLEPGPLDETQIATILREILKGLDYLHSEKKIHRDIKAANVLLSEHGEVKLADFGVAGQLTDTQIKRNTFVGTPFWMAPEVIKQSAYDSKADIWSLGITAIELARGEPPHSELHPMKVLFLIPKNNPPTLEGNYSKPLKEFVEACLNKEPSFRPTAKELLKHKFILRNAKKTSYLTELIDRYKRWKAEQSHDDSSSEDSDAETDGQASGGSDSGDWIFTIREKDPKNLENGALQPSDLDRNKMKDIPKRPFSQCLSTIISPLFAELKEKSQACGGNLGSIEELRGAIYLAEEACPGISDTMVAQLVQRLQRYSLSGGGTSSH
From the text: as §1
The mark [14] stands for this setting: read-out: % Enzyme Activity (relative to DMSO controls).

Sequence of 363 human kinases (including Aurora A/B/C) (Homo sapiens, UniProt P29597) (P29597 whole entry): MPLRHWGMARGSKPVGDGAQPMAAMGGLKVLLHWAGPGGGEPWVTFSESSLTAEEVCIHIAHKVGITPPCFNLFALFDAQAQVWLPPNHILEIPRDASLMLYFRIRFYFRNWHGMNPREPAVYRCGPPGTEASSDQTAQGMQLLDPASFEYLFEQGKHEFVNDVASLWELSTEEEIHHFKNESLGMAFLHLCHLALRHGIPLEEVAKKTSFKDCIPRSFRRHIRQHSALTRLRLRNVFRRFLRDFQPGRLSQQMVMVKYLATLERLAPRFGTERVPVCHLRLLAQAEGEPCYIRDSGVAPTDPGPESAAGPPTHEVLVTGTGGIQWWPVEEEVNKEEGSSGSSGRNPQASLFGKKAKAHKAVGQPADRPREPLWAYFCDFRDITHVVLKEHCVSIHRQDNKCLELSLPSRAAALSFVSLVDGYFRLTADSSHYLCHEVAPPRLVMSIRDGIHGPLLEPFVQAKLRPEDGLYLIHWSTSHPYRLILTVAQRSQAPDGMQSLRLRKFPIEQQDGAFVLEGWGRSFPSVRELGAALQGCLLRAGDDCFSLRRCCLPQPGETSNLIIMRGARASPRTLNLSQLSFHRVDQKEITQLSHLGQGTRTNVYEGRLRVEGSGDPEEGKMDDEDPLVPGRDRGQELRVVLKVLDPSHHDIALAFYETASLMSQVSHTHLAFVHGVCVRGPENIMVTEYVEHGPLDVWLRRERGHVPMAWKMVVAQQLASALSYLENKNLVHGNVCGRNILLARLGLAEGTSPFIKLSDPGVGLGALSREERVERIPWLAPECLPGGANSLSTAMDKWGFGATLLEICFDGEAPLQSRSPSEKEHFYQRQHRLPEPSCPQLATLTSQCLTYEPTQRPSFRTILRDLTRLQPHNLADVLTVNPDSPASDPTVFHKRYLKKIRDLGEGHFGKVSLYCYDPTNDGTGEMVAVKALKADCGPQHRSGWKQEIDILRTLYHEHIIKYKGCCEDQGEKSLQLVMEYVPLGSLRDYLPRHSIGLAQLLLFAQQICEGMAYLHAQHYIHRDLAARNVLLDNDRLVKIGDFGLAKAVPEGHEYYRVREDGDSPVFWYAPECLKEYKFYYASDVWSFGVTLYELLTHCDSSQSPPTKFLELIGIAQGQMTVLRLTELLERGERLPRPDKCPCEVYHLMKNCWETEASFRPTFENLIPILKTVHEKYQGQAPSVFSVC
Sequence of 363 human kinases (including Aurora A/B/C) (Homo sapiens, UniProt Q6P2M8) (Q6P2M8 whole entry): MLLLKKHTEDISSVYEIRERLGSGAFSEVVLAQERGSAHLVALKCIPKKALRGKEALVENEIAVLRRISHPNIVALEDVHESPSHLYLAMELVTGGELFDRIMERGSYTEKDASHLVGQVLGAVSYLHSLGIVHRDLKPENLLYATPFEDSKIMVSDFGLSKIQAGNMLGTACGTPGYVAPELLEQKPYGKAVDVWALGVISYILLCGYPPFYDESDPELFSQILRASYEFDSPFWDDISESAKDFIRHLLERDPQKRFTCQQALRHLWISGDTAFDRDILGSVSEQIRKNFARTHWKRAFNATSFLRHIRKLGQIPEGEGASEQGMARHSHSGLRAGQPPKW
Sequence of 363 human kinases (including Aurora A/B/C) (Homo sapiens, UniProt P41279) (P41279 whole entry): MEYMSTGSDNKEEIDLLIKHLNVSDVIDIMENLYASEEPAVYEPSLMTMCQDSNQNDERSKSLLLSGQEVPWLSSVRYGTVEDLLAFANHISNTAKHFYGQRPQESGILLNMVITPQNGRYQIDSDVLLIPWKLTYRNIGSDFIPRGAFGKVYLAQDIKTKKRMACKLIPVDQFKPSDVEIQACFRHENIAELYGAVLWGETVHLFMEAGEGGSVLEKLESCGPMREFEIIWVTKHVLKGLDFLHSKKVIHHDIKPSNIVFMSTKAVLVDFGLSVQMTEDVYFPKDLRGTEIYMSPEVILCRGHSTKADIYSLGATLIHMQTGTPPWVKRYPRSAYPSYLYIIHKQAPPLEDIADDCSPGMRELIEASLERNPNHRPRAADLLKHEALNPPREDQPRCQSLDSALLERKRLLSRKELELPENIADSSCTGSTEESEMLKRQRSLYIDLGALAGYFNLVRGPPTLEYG
Sequence of 363 human kinases (including Aurora A/B/C) (Homo sapiens, UniProt Q9BXA6) (Q9BXA6 whole entry): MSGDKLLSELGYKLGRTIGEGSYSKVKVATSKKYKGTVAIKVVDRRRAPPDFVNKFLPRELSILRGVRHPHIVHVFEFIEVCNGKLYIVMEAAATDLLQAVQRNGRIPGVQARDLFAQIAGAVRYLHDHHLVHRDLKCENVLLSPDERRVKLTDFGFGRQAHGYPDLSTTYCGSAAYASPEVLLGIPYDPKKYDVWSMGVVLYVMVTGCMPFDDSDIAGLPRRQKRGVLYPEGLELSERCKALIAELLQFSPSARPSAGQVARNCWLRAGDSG
Sequence of 363 human kinases (including Aurora A/B/C) (Homo sapiens, UniProt P49760) (P49760 whole entry): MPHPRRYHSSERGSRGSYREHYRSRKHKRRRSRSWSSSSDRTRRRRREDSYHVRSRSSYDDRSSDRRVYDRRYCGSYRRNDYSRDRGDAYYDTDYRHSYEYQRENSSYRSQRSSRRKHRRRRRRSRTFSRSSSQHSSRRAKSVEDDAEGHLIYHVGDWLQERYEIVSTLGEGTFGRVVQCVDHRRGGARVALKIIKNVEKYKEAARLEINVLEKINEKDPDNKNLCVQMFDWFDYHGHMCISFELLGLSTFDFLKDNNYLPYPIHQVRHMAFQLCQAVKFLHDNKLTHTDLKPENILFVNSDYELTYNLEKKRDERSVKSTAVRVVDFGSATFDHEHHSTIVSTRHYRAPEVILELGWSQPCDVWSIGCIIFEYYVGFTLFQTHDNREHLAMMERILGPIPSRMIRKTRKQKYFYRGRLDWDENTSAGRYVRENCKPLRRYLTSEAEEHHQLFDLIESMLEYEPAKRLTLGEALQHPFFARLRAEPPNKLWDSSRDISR

With `O=C(c1cccc(Cl)c1F)N1CCN(Cc2cccc(Nc3nccs3)n2)CC1` [MK-8745], the “% Enzyme Activity (relative to DMSO controls)” value was determined as 32.47% in [1] (500 nM); 85.63% in [2] (500 nM); 67.55% in [3] (500 nM); 9.19% in assay [4] (500 nM); 88.35% in [5] (500 nM); 89.78% in assay [6] (500 nM). The “% Enzyme Activity (relative to DMSO controls)” value in [7] (500 nM) came out at 95.24%; in assay [8] (500 nM) it was 94.45%; in assay [9] (500 nM), 124.49%; in assay [10] (500 nM), 98.69%; in assay [11] (500 nM) it was 91.73%; in assay [12] (500 nM) it was 97.78%. Further, the “% Enzyme Activity (relative to DMSO controls)” value in assay [13] (500 nM) came out at 84.91%. The remaining activity at 0.5 µM in [1] (500 nM, read-out: % Enzyme Activity (relative to DMSO controls)) stood at 34.6%; in assay [2] (500 nM), 86%; in assay [3] (500 nM), 67.8%; in [4] (500 nM), 9.98%; in [5] (500 nM), 91.3%; in assay [6] (500 nM) it was 90.9%. Further, the remaining activity at 0.5 µM in assay [7] (500 nM) was found to be 99%; in assay [8] (500 nM) it was 96.7%; in assay [9] (500 nM), 126%; in assay [10] (500 nM), 100%; in assay [11] (500 nM) it was 94.5%; in assay [12] (500 nM), 99.3%. In addition, in assay [13] (500 nM), the remaining activity at 0.5 µM stood at 85.3%.
Consider `CCn1cc(-c2ccnc3[nH]c(-c4cccc(CN(C)C)c4)cc23)c(-c2ccc(NC(=O)N(C)C)cc2)n1` [GSK1070916], for which the remaining activity at 0.1 µM in [1] (setting [14]) was found to be 87.7%; in assay [2], 90%; in [3] it was 87%; in assay [4], 103%; in assay [5], 87.8%; in assay [6] it was 90.1%. The remaining activity at 0.1 µM in assay [7] turned out to be 93.6%; in assay [8] it was 103%; in [9] it was 89.4%; in assay [10], 99.4%; in [11], 100%; in [12], 110%. In assay [13], the remaining activity at 0.1 µM came out at 85.4%.
As to `O=C(O)[C@]1(Cc2cccc(Nc3nccs3)n2)CC[C@@H](Oc2cccc(Cl)c2F)CC1` [MK-5108], the remaining activity at 0.1 µM is 8.42% in [1] (setting [14]); 96% in assay [2]; 52.3% in assay [3]; 38.5% in [4]; 101% in [5]; 95.7% in assay [6]. For the same compound, the remaining activity at 0.1 µM worked out at 72.9% in assay [7]; 96% in assay [8]; 98.7% in assay [9]; 89.2% in [10]; 95.1% in [11]; 100% in assay [12]. Moreover, the remaining activity at 0.1 µM in [13] came to 102%. For the same compound, the remaining activity at 0.5 µM in [2] (500 nM) worked out at 73.7%; in assay [3] (500 nM), 17%; in assay [4] (500 nM) it was 14%; in assay [5] (500 nM), 91%; in [6] (500 nM), 97.7%; in assay [7] (500 nM), 25.4%. Also, the remaining activity at 0.5 µM in [8] (500 nM) is 115%; in assay [9] (500 nM) it was 140%; in [10] (500 nM) it was 102%; in [11] (500 nM), 104%; in assay [12] (500 nM) it was 99%; in assay [13] (500 nM), 87.9%.
